Our source for the IC50 values is patent publication US9499493B2, “2,4-pyrimidinediamine compounds and their uses” (Rigel Pharmaceuticals, Inc., priority 2002, dated 2016).

Assay [1] relates to cultured human mast cells (CHMC). As to the kind of experiment: CHMC low cell density IgE activation: tryptase assay. The conditions noted are these: anti-IgE. The class given is cell-based. The procedure, abridged:
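CHMC resuspended in pre-warmed MT buffer at 1000-1500 cells/well (donor-dependent) and preincubated 1 hr at 37° C, then stimulated with anti-IgE for 30 min at 37° C; unstimulated wells got MT alone. Supernatant tryptase activity read with tryptase substrate after 30 min at room temperature.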

Assay [2] has the same test system. As to the kind of experiment: CHMC low cell density ionomycin activation: tryptase assay. It is filed as cell-based.

Take `CNC(=O)CCn1ncc2ccc(Nc3ncc(F)c(Nc4cccc(O)c4)n3)cc21` [R935294, 5-Fluoro-N4-(3-hydroxyphenyl)-N2-[1-[2-(N-methylaminocarbonyl)ethyl]-indazoline-6-yl]-2,4-pyrimidinediamine]: the IC50 in assay [1] was 0.388 µM; in assay [2] it was greater than 10 µM.
In the same order, the values of `CCOC(=O)CCn1ncc2ccc(Nc3nc(Nc4ccc5oc(C(=O)OC)cc5c4)ncc3F)cc21` [R935295, N4-[1-(2-Ethoxycarbonylethyl)indazoline-6-yl]-5-fluoro-N2-(2-methoxycarbonylbenzofur-5-yl)-2,4-pyrimidinediamine] are 1.94 µM and greater than 10 µM.
In the same order, the values of `CNC(=O)CCn1ncc2ccc(Nc3ncc(F)c(Nc4ccc5oc(C(=O)NC)cc5c4)n3)cc21` [R935297, 5-Fluoro-N4-[2-(N-methylaminocarbonyl)benzofuran-5-yl]-N2-[1-[2(N-methylaminocarbonyl)ethyl]-indazoline-6-yl]-2,4-pyrimidinediamine] are 7.33 µM and greater than 10 µM.
In the same order, the values of `Cn1cc2cc(Nc3ncc(F)c(Nc4cccc(O)c4)n3)ccc2n1` [R935299, 5-Fluoro-N4-(3-hydroxyphenyl)-N2-(2-methy-indazoline-5-yl)-2,4-pyrimidinediamine] are 0.21 µM and greater than 10 µM.
As for `Cn1cc2cc(Nc3ncc(F)c(Nc4ccc5c(c4)OCCO5)n3)ccc2n1` [R935300, N4-(3,4-Ethyelenedioxyphenyl)-5-fluoro-N2-(2-methy-indazoline-5-yl)-2,4-pyrimidinediamine], the IC50 in assay [1] is 0.243 µM; in assay [2] it was greater than 10 µM.
`OCCCn1ncc2cc(Nc3ncc(F)c(Nc4ccc5c(c4)OCCO5)n3)ccc21` [R935302, N4-(3,4-Ethylenedioxyphenyl)-5-fluoro-N2-[1-(3-hydroxypropyl)indazoline-5-yl]-2,4-pyrimidinediamine]: the IC50 in assay [1] was 0.189 µM; in assay [2], greater than 10 µM.
On to `OCCCn1ncc2cc(Nc3ncc(F)c(Nc4cccc(O)c4)n3)ccc21` [R935304, 5-Fluoro-N4-(3-hydroxyphenyl)-N2-[1-(3-hydroxypropyl)indazoline-5-yl]-2,4-pyrimidinediamine], for which the IC50 was 0.188 µM in assay [1] and greater than 10 µM in assay [2].
In the same order, the values of `CNC(=O)CCn1ncc2cc(Nc3ncc(F)c(Nc4cccc(O)c4)n3)ccc21` [R935305, 5-Fluoro-N4-(3-hydroxyphenyl)-N2-[1-[2(N-methylaminocarbonyl)ethyl]-indazoline-5-yl]-2,4-pyrimidinediamine] are 0.495 µM and greater than 10 µM.
In the same order, the values of `OCCCn1ncc2ccc(Nc3ncc(F)c(Nc4ccc5oc(CO)cc5c4)n3)cc21` [R935308, 5-Fluoro-N4-(2-hydroxymethylbenzofur-5-yl)-N2-[1-(3-hydroxypropyl)indazoline-6-yl]-2,4-pyrimidinediamine] are 0.275 µM and greater than 10 µM.
In the same order, the values of `COC(=O)c1ccc(Cn2cc3ccc(Nc4ncc(F)c(Nc5ccc(OC(C)C)cc5)n4)cc3n2)c(OC)c1` [R935338, 5-Fluoro-N4-(4-isopropoxyphenyl)-N2-[2-(2-methoxy-4-carbomethoxybenzyl)indazoline-6-yl]-2,4-pyrimidinediamine] are 0.411 µM and greater than 10 µM.
Turning to `Cn1ncc2cc(Nc3ncc(F)c(Nc4ccc(Cl)cc4)n3)ccc21` [R935351, N4-(4-Chlorophenyl)-5-fluoro-N2-(1-methyl-indazoline-5-yl)-2,4-pyrimidinediamine], the IC50 in assay [1] and in assay [2] was greater than 10 µM in each case.
`CCOC(=O)CCn1ncc2cc(Nc3ncc(F)c(Nc4ccc(Cl)cc4)n3)ccc21` [R935353, N4-(4-Chlorophenyl)-N2-[1-(2-ethoxycarbonylethyl)indazoline-5-yl]-5-fluoro-2,4-pyrimidinediamine]: the 50% inhibitory concentration (IC50) in assay [1] and in assay [2] was greater than 10 µM in each case.
Take `Cn1ncc2cc(Nc3ncc(F)c(Nc4ccc(Cl)c(Cl)c4)n3)ccc21` [R935355, N4-(3,4-Dichlorophenyl)-5-fluoro-N2-(1-methylindazoline-5-yl)-2,4-pyrimidinediamine]: the IC50 in assay [1] and in assay [2] was greater than 10 µM in each case.
For `Cn1ncc2cc(Nc3ncc(F)c(Nc4ccc(F)c(F)c4)n3)ccc21` [R935358, N4-(3,4-Difluorophenyl)-5-fluoro-N2-(1-methylindazoline-5-yl)-2,4-pyrimidinediamine], the IC50 in assay [1] and in assay [2] was greater than 10 µM each time.
In the case of `Cn1ncc2cc(Nc3ncc(F)c(Nc4ccc(OC(F)(F)F)c(Cl)c4)n3)ccc21` [R935359, N4-(3-chloro-4-trifluoromethoxyphenyl)-5-fluoro-N2-(1-methylindazoline-5-yl)-2,4-pyrimidinediamine], the IC50 is 1.03 µM in assay [1] and greater than 10 µM in assay [2].
On to `CCOC(=O)CCn1ncc2cc(Nc3ncc(F)c(Nc4cccc(OC(F)(F)F)c4)n3)ccc21` [R935360, N2-[1-(2-Ethoxycarbonylethyl)indazoline-5-yl]-5-fluoro-N4-(3-trifluoromethoxyphenyl)-2,4-pyrimidinediamine], for which the figures for the IC50 in assay [1] and in assay [2] were 0.903 µM and greater than 10 µM, respectively.
Consider `CNC(=O)CCn1ncc2cc(Nc3ncc(F)c(Nc4cccc(OC(F)(F)F)c4)n3)ccc21` [R935361, 5-Fluoro-N2-[1-[2(N-methylaminocarbonyl)ethyl]indazoline-5-yl]-N4-(3-trifluoromethoxyphenyl)-2,4-pyrimidinediamine], for which the IC50 in assay [1] is 1.44 µM; in assay [2], greater than 10 µM.
In the same order, the values of `OCCCn1ncc2cc(Nc3ncc(F)c(Nc4cccc(OC(F)(F)F)c4)n3)ccc21` [R935362, 5-Fluoro-N2-[1-(3-hydroxypropyl)indazoline-5-yl]-N4-(3-trifluoromethoxyphenyl)-2,4-pyrimidinediamine] are 0.409 µM and greater than 10 µM.
In the same order, the values of `Fc1cnc(Nc2ccc3[nH]ncc3c2)nc1Nc1cccc(OC(F)(F)F)c1` [R935364, 5-Fluoro-N2-(indazoline-5-yl)-N4-(3-trifluoromethoxyphenyl)-2,4-pyrimidinediamine] are 0.563 µM and greater than 10 µM.
In the same order, the values of `Fc1cnc(Nc2ccc3[nH]ncc3c2)nc1Nc1ccc(Cl)cc1` [R935365, N4-(4-Chlorophenyl)-5-fluoro-N2-(indazoline-5-yl)-2,4-pyrimidinediamine] are 0.373 µM and greater than 10 µM.
Consider `Fc1cnc(Nc2ccc3[nH]ncc3c2)nc1Nc1ccc(OC(F)(F)F)c(Cl)c1` [R935366, N4-(3-Chloro-4-trifluoromethoxyphenyl)-5-fluoro-N2-(indazoline-5-yl)-2,4-pyrimidinediamine], for which the IC50 in assay [1] is 0.216 µM; in assay [2], greater than 10 µM.
In the same order, the values of `Fc1cnc(Nc2ccc3cn[nH]c3c2)nc1Nc1ccc(OC(F)(F)F)c(Cl)c1` [R935368, N4-(3-Chloro-4-trifluoromethoxyphenyl)-5-fluoro-N2-(indazoline-6-yl)-2,4-pyrimidinediamine] are 0.082 µM and greater than 10 µM.
In the same order, the values of `Fc1cnc(Nc2ccc3[nH]ncc3c2)nc1Nc1ccc(Cl)c(Cl)c1` [R935371, N4-(3,4-Dichlorophenyl)-5-fluoro-N2-(indazoline-5-yl)-2,4-pyrimidinediamine] are 0.794 µM and greater than 10 µM.
With `Fc1cnc(Nc2ccc3[nH]ncc3c2)nc1Nc1ccc2c(c1)OC(F)(F)O2` [R935373, N4-(3,4-Difluoromethylendioxyphenyl)-5-fluoro-N2-(indazoline-5-yl)-2,4-pyrimidinediamine], the IC50 in assay [1] is 0.274 µM; in assay [2], greater than 10 µM.
In the same order, the values of `Fc1cnc(Nc2ccc3cn[nH]c3c2)nc1Nc1ccc2c(c1)OC(F)(F)O2` [R935374, N4-(3,4-Difluoromethylendioxyphenyl)-5-fluoro-N2-(indazoline-6-yl)-2,4-pyrimidinediamine] are 0.356 µM and greater than 10 µM.
In the same order, the values of `Cn1ncc2cc(Nc3ncc(F)c(Nc4ccc(Cl)nc4)n3)ccc21` [R935375, N4-(6-Chloro-3-pyridyl)-5-fluoro-N2-(1-methylindazoline-5-yl)-2,4-pyrimidinediamine] are 10 µM and greater than 10 µM.
In the same order, the values of `CNC(=O)CCn1ncc2cc(Nc3ncc(F)c(Nc4ccc(Cl)nc4)n3)ccc21` [R935378, N4-(6-Chloro-3-pyridyl)-5-fluoro-N2-[1-[2(N-methylaminocarbonyl)ethyl]indazoline-5-yl]-2,4-pyrimidinediamine] are 0.566 µM and greater than 10 µM.
With `COc1ccc(Nc2ncc([N+](=O)[O-])c(Nc3ccc(OC)c(OC)c3)n2)cc1OC` [R940089, N2,N4-Bis-(3,4-dimethoxyphenyl)-5-nitro-2,4-pyrimidinediamine], the IC50 is greater than 10 µM in assay [1] (Homo sapiens, Mast cell) and greater than 10 µM in assay [2] (Homo sapiens, Mast cell).
As for `CCOc1ccc(Nc2ncc([N+](=O)[O-])c(Nc3ccc(OCC)cc3)n2)cc1` [R940090, N2,N4-Bis-(4-ethoxyphenyl)-5-nitro-2,4-pyrimidinediamine], the IC50 in assay [1] (Homo sapiens, Mast cell) is greater than 10 µM; in assay [2] (Homo sapiens, Mast cell) it was greater than 10 µM.
Take `CCOC(=O)COc1cccc(Nc2ncc(F)c(Nc3cc(C)c(O)c(C)c3)n2)c1` [R940253, N4-(3,5-Dimethyl-4-hydroxyphenyl)-N2-(3-ethoxycarbonylmethyleneoxyphenyl)-5-fluoro-2,4-pyrimidinediamine]: the IC50 is 1.01 µM in assay [1] and greater than 10 µM in assay [2].
In the same order, the values of `Cc1cc(Nc2nc(Nc3cccc(OCC(=O)N4CCOCC4)c3)ncc2F)cc(C)c1O` [R940254, N4-(3,5-Dimethyl-4-hydroxyphenyl)-5-fluoro-N2-[3-(N-morpholino)carbonylmethyleneoxyphenyl]-2,4-pyrimidinediamine] are 0.986 µM and greater than 10 µM.
In the same order, the values of `COc1ccc(Nc2nc(NC3CCN(Cc4ccccc4)CC3)ncc2F)cc1OC` [R940263, N2-[4-(N-Benzylpiperidino)]-N4-(3,4-dimethoxyphenyl)-5-fluoro-2,4-pyrimidinediamine] are greater than 10 µM and greater than 10 µM.

Broadly, the IC50 is the midpoint of a concentration-inhibition curve. Read a high IC50 as lower potency.
